Test results published in US6579881B2 (Eisai Co., Ltd., priority 1997, dated 2003).

Tests used:
serotonin 1A receptor = target: T1, serotonin 1A receptor (Rattus norvegicus, UniProt P19327); assay: Binding test on [3H] 8-hydroxy-dipropylaminotetralin (serotonin 1A receptor); settings: [3H] 8-OH-DPAT 0.5 nM, receptor fraction of rat hippocampus; read-out: 5HT1a
T1 construct: To the receptor fraction of the hippocampus were added a test compound and 0.5 nM of [^3H]; 8-hydroxy-dipropylaminotetralin; from tissue; host or cells: SD rat hippocampus, membrane (receptor) fraction
T1 sequence (P19327 1-422): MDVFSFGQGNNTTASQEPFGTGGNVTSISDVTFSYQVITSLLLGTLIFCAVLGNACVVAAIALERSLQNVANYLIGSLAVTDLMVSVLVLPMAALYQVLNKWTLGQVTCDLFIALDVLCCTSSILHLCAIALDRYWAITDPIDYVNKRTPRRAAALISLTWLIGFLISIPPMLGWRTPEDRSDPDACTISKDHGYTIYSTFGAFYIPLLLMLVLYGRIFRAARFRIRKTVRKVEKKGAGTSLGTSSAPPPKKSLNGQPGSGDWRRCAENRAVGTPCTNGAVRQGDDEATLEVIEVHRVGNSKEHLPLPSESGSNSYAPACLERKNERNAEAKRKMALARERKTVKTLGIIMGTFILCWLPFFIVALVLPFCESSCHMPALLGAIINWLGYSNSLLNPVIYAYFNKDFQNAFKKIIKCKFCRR

serotonin 2 receptor = serotonin 2 receptor (Rattus norvegicus, UniProt P14842); assay: Binding test on [3H] ketanserin (serotonin 2 receptor); settings: [3H] ketanserin 0.3 nM, receptor fraction of rat cerebral cortex; read-out: 5HT2
Sequence of serotonin 2 receptor (P14842 whole entry): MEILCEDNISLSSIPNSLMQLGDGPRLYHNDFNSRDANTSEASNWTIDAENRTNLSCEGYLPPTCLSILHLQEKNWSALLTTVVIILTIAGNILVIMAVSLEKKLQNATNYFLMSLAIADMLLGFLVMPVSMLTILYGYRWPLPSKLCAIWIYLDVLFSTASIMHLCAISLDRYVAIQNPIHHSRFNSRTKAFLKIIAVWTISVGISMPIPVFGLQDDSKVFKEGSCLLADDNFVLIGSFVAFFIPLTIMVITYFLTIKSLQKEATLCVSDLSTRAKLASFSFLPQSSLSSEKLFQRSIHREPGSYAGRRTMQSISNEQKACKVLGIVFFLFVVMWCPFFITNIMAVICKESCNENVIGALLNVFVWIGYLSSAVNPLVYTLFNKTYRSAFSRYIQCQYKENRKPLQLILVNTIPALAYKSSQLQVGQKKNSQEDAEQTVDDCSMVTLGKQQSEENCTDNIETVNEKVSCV

Row | Compound | Ki (serotonin 1A receptor) [nM] | Ki (serotonin 2 receptor) [nM]
1 | CC(=O)NC(C)c1ccc2c(c1)N(C1CCN(CCc3ccc(F)cc3)CC1)CC2 (centres unmarked) [Example 165, 1-[1-(4-fluorophenethyl)piperidin-4-yl]-6-(1-acetamidoethyl)indoline] | 5.5 | 1.22
2 | O=C1CCCN1Cc1ccc2c(c1)N(C1CCN(CCc3ccc(F)cc3)CC1)CC2 [Example 202, 1-[1-(4-fluorophenethyl)piperidin-4-yl]-6-(2-pyrrolidon-1-yl)methylindoline] | 2.57 | 5.13
3 | FCc1ccc2c(c1)N(C1CCN(CCc3ccc(F)cc3)CC1)CC2 [Example 143, 1-[1-(4-fluorophenethyl)piperidin-4-yl]-6-fluoromethylindoline] | 1.86 | 3.36
4 | CC(C)CNC(=O)Cc1ccc2c(c1)N(C1CCN(CCc3ccc(F)cc3)CC1)CC2 [Example 152, 1-[1-(4-fluorophenethyl)piperidin-4-yl]-6-(isobutylcarbamoylmethyl)indoline] | 16.4 | 0.27
5 | COc1ccc2c(c1)N(C1CCN(CCc3ccc4ncsc4c3)CC1)CC2 [Example 233, 1-{1-[2-(6-benzothiazolyl)ethyl]-piperidin-4-yl}-6-methoxyindoline] | 0.6 | > 200
6 | CC(C)(O)c1ccc2c(c1)N(C1CCN(CCc3ccc(F)cc3)CC1)CC2 [Example 139, 1-[1-(4-fluorophenethyl)piperidin-4-yl]-6-(1-hydroxy-1-methylethyl)indoline] | 2.31 | 8.8
7 | O=C(CCCN1CCC(N2CCc3ccccc32)CC1)c1ccc(F)cc1 [Example 72, 1-{1-[4-(4-fluorophenyl)-4-oxobutyl]piperidin-4-yl}indoline] | 25.9 | 21.1
8 | COc1ncccc1Cc1ccc2c(c1)N(C1CCN(CCc3ccc(F)cc3)CC1)CC2 [Example 185, 1-[1-(4-fluorophenethyl)piperidin-4-yl]-6-[1-(2-methoxypyridin-3-yl)methyl]indoline] | 14.6 | 4.73
9 | O=S(=O)(NCCN1CCC(N2CCc3ccccc32)CC1)c1ccc(Cl)cc1 [Example 47, 1-{1-[2-(4-chlorophenylsulfonylamino)ethyl]piperidin-4-yl}indoline] | 206 | 92.3
10 | C[C@@H]1CN(CCc2ccc(F)cc2)CC[C@@H]1N1CCc2ccccc21 (relative stereo) [Example 79, cis-1-[1-(4-fluorophenethyl)-3-methylpiperidin-4-yl]indoline] | 115 | 26.5
11 | CN(C)c1ccc2c(c1)N(C1CCN(CCc3ccc(F)cc3)CC1)CC2 [Example 114, 1-[1-(4-fluorophenethyl)piperidin-4-yl]-6-dimethylaminoindoline] | 5.8 | 23.2
12 | Nc1ccc(CCN2CCC(N3CCc4ccccc43)CC2)cc1 [Example 30, 1-[1-(4-aminophenethyl)piperidin-4-yl]indoline] | 21.9 | 15.7
13 | CS(=O)(=O)NCc1ccc2c(c1)N(C1CCN(CCc3ccc(F)cc3)CC1)CC2 [Example 160, 1-[1-(4-fluorophenethyl)piperidin-4-yl]-6-methylsulfonylaminomethylindoline] | 3.86 | 8
14 | NC(=S)Cc1ccc2c(c1)N(C1CCN(CCc3ccc(F)cc3)CC1)CC2 [Example 129, 1-[1-(4-fluorophenethyl)piperidin-4-yl]-6-thiocarbamoylmethylindoline] | 0.95 | 0.65
15 | OCc1ccc(OCCCN2CCC(N3CCc4ccccc43)CC2)cc1 [Example 70, 1-{1-[3-(4-hydroxymethylphenoxy)propyl]piperidin-4-yl}indoline] | 41.9 | 27.6
16 | CC(F)c1ccc2c(c1)N(C1CCN(CCc3ccc(F)cc3)CC1)CC2 (centres unmarked) [Example 144, 1-[1-(4-fluorophenethyl)piperidin-4-yl]-6-(1-fluoroethyl)indoline] | 1.49 | 3.38

Row | Compound | Ki (serotonin 1A receptor) [nM] | Ki (serotonin 2 receptor) [nM]
17 | CC(=O)c1ccc2c(c1)N(C1CCN(CCc3ccc(F)cc3)CC1)CC2 [Example 127, 1-[1-(4-fluorophenethyl)piperidin-4-yl]-6-acetylindoline] | 0.21 | 5.08
18 | Fc1ccc(CCCCN2CCC(N3CCc4ccccc43)CC2)cc1 [Example 15, 1-[1-(4-fluorophenylbutyl)piperidin-4-yl]indoline] | 28.6 | 28.6
19 | CC(C)C(=O)NCc1ccc2c(c1)N(C1CCN(CCc3ccc(F)cc3)CC1)CC2 [Example 158, 1-[1-(4-fluorophenethyl)piperidin-4-yl]-6-isobutyrylaminomethylindoline] | 8.18 | 0.16
20 | CCN1CCN([C@@H]2c3ccccc3CC2N(C)Cc2ccc(F)cc2)CC1 (some centres unmarked) [Example 254] | > 200 | 177
21 | CCN1CCN([C@@H]2c3cc(OC)ccc3CC[C@H]2Oc2ccc(C(F)(F)F)cc2)CC1 (relative stereo) [Example 279, trans-1-(4-ethylpiperazin-1-yl)-7-methoxy-2-(4-trifluoromethylphenoxy)-1,2,3,4-tetrahydronaphthalene] | 0.22 | 90.4
22 | Fc1ccc(CCN2CCC(N3CCc4ccc(Cl)cc43)CC2)cc1 [Example 102, 1-[1-(4-fluorophenethyl)piperidin-4-yl]-6-chloroindoline] | 2.7 | 28.4
23 | c1ccc(CCN2CCC(N3CCc4ccccc43)CC2)cc1 [Example 3, 1-(1-phenethylpiperidin-4-yl)indoline] | 28.7 | 17.4
24 | COc1ccc(CCN2CCC(C3CCc4ccccc43)CC2)cc1 (centres unmarked) [Example 249, 1-[1-(4-methoxyphenethyl)piperidin-4-yl]indan] | 2.1 | 20.2
25 | CC(=O)NCc1ccc2c(c1)N(C1CCN(CCc3ccc(F)cc3F)CC1)CC2 [Example 224, 1-[1-(2,4-difluorophenethyl)piperidin-4-yl]-6-acetamidomethylindoline] | 3.09 | 5.11
26 | CNc1ccc2c(c1)N(C1CCN(CCc3ccc(F)cc3)CC1)CC2 [Example 111, 1-[1-(4-fluorophenethyl)piperidin-4-yl]-6-methylaminoindoline] | 5.5 | 74.2
27 | COc1ccc(CCN2CCC(N3CCc4ccc(OC)cc43)CC2)cc1 [Example 228, 1-[1-(4-methoxyphenethyl)piperidin-4-yl]-6-methoxyindoline] | 0.34 | > 200
28 | CC(C)(C)NC(=O)Cc1ccc2c(c1)N(C1CCN(CCc3ccc(F)cc3)CC1)CC2 [Example 153, 1-[1-(4-fluorophenethyl)piperidin-4-yl]-6-(t-butylcarbamoylmethyl)indoline] | 15.5 | 4.24
29 | CC(C)NC(=O)Cc1ccc(CCN2CCC(N3CCc4ccccc43)CC2)cc1 [Example 41, 1-[1-(4-N-isopropylcarbamoylmethylphenethyl)piperidin-4-yl]indoline] | 19.8 | 5.03
30 | Fc1ccc(CCN2CCC(N3CCc4ccc(Cc5ccncc5)cc43)CC2)cc1 [Example 179, 1-[1-(4-fluorophenethyl)piperidin-4-yl]-6-(4-pyridylmethyl)indoline] | 0.17 | 0.41
31 | CN(C)Cc1ccc2c(c1)N(C1CCN(CCc3ccc(F)cc3)CC1)CC2 [Example 200, 1-[1-(4-fluorophenethyl)piperidin-4-yl]-6-N,N-dimethylaminomethylindoline] | 4.84 | 234
